Publication PMC10950963, “Anti-leishmanial activity of Eleutherine plicata Herb. and predictions of isoeleutherin and its analogues” (Frontiers in Chemistry, 2024)
Converted amounts (≈) assume the structure as drawn. “Also recorded” adds a separate entry of the source. Read-outs that look alike come from different tables or passages of the source.

How the values were obtained:
[1] = tested on: amastigotes of L. donovani; conditions: ref Kaiser et al., 2000; cited from earlier work
[2] = Cytotoxicity to macrophages; type: cell-based, mice; conditions: BALB/c, mouse, peritoneal macrophages
[3] = tested on: Plasmodium falciparum sensitive to chloroquine; design: method as in Vale et al., 2020; conditions: ref Vale et al., 2020; cited from earlier work
[4] = tested on: intracellular amastigote forms of L. amazonensis; test: Anti-amastigote assay in infected murine macrophages (Giemsa count); type: cell-based, Leishmania amazonensis; conditions: 500, 250 and 125 μg/mL, 72 h
Protocol: Murine macrophages (4 × 10^5 cells) were seeded on round glass coverslips into 24-well culture plates (Nunc) in RPMI 1640 medium (Sigma and Aldrich), supplemented with 20% fetal bovine serum (FBS), 2 mM L-glutamine, penicillin 50 IU/mL, and streptomycin 50 μg/mL, pH 7.4. After 24 h of incubation at 35°C in 5% CO2, promastigotes of L. amazonensis in stationary phase were added to the wells (4 × 10^6 parasites) to promote infection of macrophages, and the cultures were incubated for 4 h at 35°C in 5% CO2. Next, the free parasites were removed by extensive washing with RPMI 1640 medium, and the infected macrophages were quantified and treated with the extract, FA2, FA3, fraction FA4, and isoeleutherin (500–125 μg/mL, each) for 72 h at 35°C in 5% CO2. The negative control consisted of infected macrophages and culture medium. The positive control used AmpB (100–25 μg/mL). Then, coverslips were stained with Giemsa, and the percentage of inhibition of intramacrophage viability of Leishmania was determined by counting the number of amastigotes per 100 macrophages on each coverslip, under a light microscope (×100 magnification). The presented data were performed in triplicate, and the IC50 was determined using GraphPad Prism version 5.04 ([Silva, 2005]).

[5] = compared with EEEp and FDCMEp, ref Albuquerque et al., 2023, cited from earlier work
HepG2 = tested on: HepG2; design: method as in Gomes et al., 2021; conditions: exposure for 24 h, compared with EEEp and FDMEp; ref Gomes et al., 2021; cited from earlier work
[6] = tested on: promastigotes of L. amazonensis; test: Inhibition of growth/viability of L. amazonensis promastigotes (MTT); type: cell-based; conditions: Leishmania amazonensis
Protocol: Inhibition of Leishmania growth was evaluated in vitro by cultivating promastigotes of L. amazonensis in stationary phase (5×10^6 parasites) in the presence of the extract, fractions and isoeleutherin (200–3.125 μg/mL) in 96-well culture plates (Nunc, Nunclon®, Roskilde, Denmark), for 72 h at 26°C. Viability was assessed by measuring the cleavage of MTT [3-(4,5-dimethylthiazol-2-yl)-2,5-diphenyl tetrazolium bromide] (Sigma) ([Ngure et al., 2009]). Absorbances were measured using a multiwell scanning spectrophotometer (Molecular Devices, Spectra Max Plus, Canada) at 490 nm. Amphotericin B (AmpB) was used as a positive control (25–0.3906 μg/mL). The concentration of products required to inhibit 50% of the viability of L. amazonensis (IC50) was determined by applying a sigmoidal regression of the individual concentration response curves of the compounds. The data are representative of independent experiments, carried out in triplicate, which presented similar results ([Mota et al., 2011]).

Th cells = tested on: Th cells; design: method as in Hong et al., 2008; conditions: ref Hong et al., 2008; cited from earlier work
[7] = tested on: peritoneal macrophages from BALB/c mice; test: Cytotoxicity to macrophages; type: cell-based; conditions: peritoneal macrophages from BALB/c mice
[8] = tested on: amastigotes of L. amazonensis; design: method as in Cunha-Junior et al., 2011; conditions: ref Cunha-Junior et al., 2011; cited from earlier work
Allium cepa = tested on: Allium cepa; design: method as in Castro et al., 2021a; conditions: Allium cepa model, 12.5 μg/mL in 72 h; ref Castro et al., 2021a; cited from earlier work

In the case of O=C1C=C(C2=CC(=O)c3cccc(O)c3C2=O)C(=O)c2c(O)cccc21 [3,3-Bijuglone], the “IC50 for amastigotes of L. donovani” value [1] is listed as 15 µg/mL.
In the case of CC1=C(C2=C(C)C(=O)c3ccc(OCc4ccccc4)c(O)c3C2=O)C(=O)c2c(ccc(OCc3ccccc3)c2O)C1=O [6,6-Dibenzyloxy-3,3-bi-plumbagin], the “IC50 for amastigotes of L. donovani” value [1] is given as 14.2 µg/mL.
With C[C@@H]1[C@H](O)[C@@H](C)/C=C/C=C/C=C/C=C/C=C/C=C/C=C/[C@H](O[C@@H]2O[C@H](C)[C@@H](O)[C@H](N)[C@@H]2O)C[C@@H]2O[C@](O)(C[C@@H](O)C[C@@H](O)[C@H](O)CC[C@@H](O)C[C@@H](O)CC(=O)O[C@H]1C)C[C@H](O)[C@H]2C(=O)O [Amphotericin B, reference compound] the CC50 [2] was > 100 µg/mL.
For COc1cccc2c1C(=O)C1=C(C[C@@H](C)O[C@@H]1C)C2=O [Isoeleutherin, isoeleutherin], the “activity in Plasmodium falciparum” value [3] is given as “active”, the “anti-amastigote activity (number of amastigotes in infected macrophages vs negative control)” value [4] is given as “No reductions in the number of amastigotes; also recorded: inactive” and the “genotoxicity / cytotoxicity in the micronucleus test” value [5] is given as “lowest cytotoxicity”. The “genotoxicity / cytotoxicity in the micronucleus test” value ([5]; listed as is eleutherin) was “less genotoxic”, the “cytotoxicity in HepG2” value (HepG2) was “the least toxic sample” and the IC50 ([6]; parasite form not given, sentence on selectivity index, read-out: IC50 against L. amazonensis) was > 200 µg/mL. For the same molecule, the IC50 ([6]; promastigotes, 72 h at 26°C, MTT, read-out: IC50 against promastigote form of L. amazonensis) was 25 µg/mL (≈ 91.8 µM), the “effect on cytokine production of Th cells” value (Th cells) was “selectively stimulating IFNc production” and the CC50 [2] was > 500 µg/mL. The “cytotoxicity on macrophages (in words)” value [7] was “did not show cytotoxicity; also recorded: no cytotoxicity”.
In the case of O=C1C2=C(C(=O)c3ccccc31)[C@H]1Oc3ccccc3[C@H]1CO2 [LQB-118], the “reduction in the number of amastigotes of L. amazonensis” value [8] is listed as “concentration-dependent reduction”.
In the case of COc1cccc2c1C(=O)C1=C(C[C@H](C)O[C@@H]1C)C2=O [eleutherin], the “percentage of chromosomal aberrations” value (Allium cepa) is listed as “higher percentage of chromosomal aberrations than isoeleutherin”.
For Cc1cc(=O)c2c(C)cc3cc(O)cc(O)c3c2o1 [eleutherinol, reference compound], the “effect on cytokine production of Th cells” value (Th cells) is listed as “inhibited the production of IFNc and IL-2”.
